Measured values reported in patent publication US4508711A, “Cyclic pentapeptide displaying somatostatin antagonism and method of treatment of mammals therewith” (American Cyanamid Company, priority 1984, dated 1985).

Key:
[1] = test system: insulin levels in hepatic portal blood; assay: Insulin levels in hepatic portal blood of fasted rats (RIA); format: in vivo, rat
Procedure: (§1) In this evaluation the procedures described by W. A. Murphy et al. Endocrinology 109:491-495 (1980), were employed.
(§2) For measurement of effects on insulin and glucagon levels, rats were fasted 27-30 hours and anesthetized with NEMBUTAL® (5 mg per 100 g body wt). Exactly 21 minutes after NEMBUTAL® injection 0.5 mL of saline or saline containing test peptide was injected into the jugular vein over a 1 minute period. Five minutes later, 3.5 mL of blood were quickly drawn from the hepatic portal vein after rapid laparotomy. Blocking effects of analog on exogenous somatostatin were examined by simultaneous injection of both peptides. Plasma insulin levels were determined using matched insulin RIA kits purchased from Cambridge Nuclear, Billerica, MA. Plasma glucagon was determined using Unger 30K antibody and ^125 I-glucagon (Cambridge Nuclear) as the tracer.

[2] = test system: glucagon levels in hepatic portal blood; assay: Glucagon levels in hepatic portal blood of fasted rats (RIA); format: in vivo, rat
Procedure: as §1, §2

[3] = test system: GH levels in the rat; assay: Growth hormone (GH) levels in NEMBUTAL-anesthetized, stimulated rats (RIA); format: in vivo; details: mean ± SE
Procedure: as §1
In growth hormone (GH) experiments, male rats (Charles Rivers) were anesthetized with NEMBUTAL® (5 mg per 100 g/BW) which also served to maintain stimulated plasma GH levels. Exactly 30 minutes after the rats were anesthetized, 0.5 mL of saline or the test peptide in saline was administered as a sc bolus. A 1 mL blood sample was drawn from the jugular vein 15 minutes after the injection. For examining blocking effects of the analog on somatostatin, the cyclic peptide was given 5 minutes prior to somatostatin. GH levels were determined using NIADDKD rat GH RIA components.

C[C@H](N)C(=O)NCC(=O)N[C@H]1CSSC[C@@H](C(=O)O)NC(=O)[C@H](CO)NC(=O)[C@H]([C@@H](C)O)NC(=O)[C@H](Cc2ccccc2)NC(=O)[C@H]([C@@H](C)O)NC(=O)[C@H](CCCCN)NC(=O)[C@H](Cc2c[nH]c3ccccc23)NC(=O)[C@H](Cc2ccccc2)NC(=O)[C@H](Cc2ccccc2)NC(=O)[C@H](CC(N)=O)NC(=O)[C@H](CCCCN)NC1=O [Somatostatin]
Insulin (Mean ± SE) ([1]; Table III Experiment 1, fasted rats, 0.4 μg/100 g iv, portal blood 5 min later, saline 67 ± 11): 57 ± 3 μU/mL | Insulin (Mean ± SE) ([1]; Table III Experiment 1, fasted rats, 2.0 μg/100 g iv, saline 67 ± 11): 28 ± 11 μU/mL | Insulin (Mean ± SE) ([1]; Table III Experiment 1, second saline set, fasted rats, 1.0 μg/100 g iv, saline 46 ± 5): 11 ± 2 μU/mL | Glucagon (Mean ± SE) ([2]; Table III Experiment 1, fasted rats, 0.4 μg/100 g iv, portal blood 5 min later, saline 80 ± 5): 64 ± 3 pg/mL | Glucagon (Mean ± SE) ([2]; Table III Experiment 1, fasted rats, 2.0 μg/100 g iv, saline 80 ± 5): 46 ± 4 pg/mL | Glucagon (Mean ± SE) ([2]; Table III Experiment 1, second saline set, fasted rats, 1.0 μg/100 g iv, saline 94 ± 9): 78 ± 7 pg/mL | Glucagon (Mean ± SE) ([2]; Table III Experiment 2, fasted rats, 1.0 μg/100 g iv, saline 45 ± 3): 18 ± 7 pg/mL | GH ([3]; Table I Experiment 1, fed rats, 0.2 μg/100 g body weight sc, blood 15 min after injection, saline 277 ± 40): 146 ± 14 ng/mL | GH ([3]; Table I Experiment 1, fed rats, 0.6 μg/100 g body weight sc, blood 15 min after injection, saline 277 ± 40): 78 ± 26 ng/mL | GH ([3]; Table I Experiment 2, fasted rats, 0.4 μg/100 g body weight, saline 403 ± 85): 107 ± 13 ng/mL
